“Also recorded” adds a separate entry of the source. Where two headings read alike, the source gives them in different places.
Key:
[1] = system: PqsR (pqsA promoter, PA14 mCTX::PpqsA-lux); test: Whole cell biosensor reporter assay, PA14 mCTX::PpqsA-lux; format: cell-based, Pseudomonas aeruginosa; conditions: for IC50: Mean ± SD, n = 3; for activity at 10 µM: PA14, read-out: PA14 Remaining Activity %; for PqsR inhibitory activity (in words), PA14: screen at 10 µM
Description: (§1) To determine the ability of the quinolines to inhibit PqsR functionality, the P. aeruginosa biosensor strains, PAO1-L and PA14, incorporating a chromosomal mCTX::PpqsA-lux transcriptional fusion, were used. These report on the activation of the pqsA promoter, regulated by PqsR [25]. PAO1-L and PA14 were chosen because they are genetically amenable and belong to the two major P. aeruginosa genomic groups. The quinolone compounds were incubated with the corresponding strain, and luminescence and optical density readings were recorded to monitor the effect of the quinolines on PqsR activity and bacterial growth, respectively. The compounds were screened at 10 µM concentration, and the activity was compared to a control of DMSO (0.1%) (Figure 3a). To be considered a hit, a threshold of at least 50% inhibition of the test compound, relative to the negative control had to be reached, without affecting bacterial growth. […] Concentration-response experiments were then carried out to determine the IC50 values (Figure 3b,c), which are summarised in Table 1.
(§2) Strains PA14 mCTX::PpqsA-lux and PAO1-L mCTX::PpqsA-lux were constructed using plasmid mini-CTX::PpqsA-lux, as previously described, and the assay was performed according to a published protocol. For screening, the compounds were tested at a concentration of 10 µM, which was prepared from a 10 mM stock, in DMSO.

[2] = Hepatic microsomal stability, rat; format: in vitro ADME; conditions: liver microsomes, pH 7.4, 0.5 mg/mL protein, NADPH, 37 °C; for microsomal CLint at 1 µM: read-out: Microsomal Stability Rat Clint (intrinsic clearance); for half-life at 1 µM: read-out: Microsomal Stability Rat t1/2
Description: Dilutions of a 1 mM test compound DMSO stock solution were prepared in buffer (typically 0.01 M phosphate buffered saline (pH 7.4) so that the final DMSO concentration was 0.1% v/v and the final test compound concentration tested was 1 µM. Following addition of protein (0.5 mg/mL final) and NADPH, the samples were pre-incubated for 10 min prior to the start of the incubation by the addition of test compound. The test compounds were then incubated (n = 2; 1 µM final concentration) at 37 °C with tissue microsomes. Aliquots were sampled at several time points and mixed with acetonitrile (containing internal standard) to terminate the reaction and precipitate the proteins. All the samples were mixed, centrifuged and the supernatants analysed by UPLC-MS/MS. The intrinsic clearance (Clint) and half-life (t 1/2) values were determined from the slope of the parent depletion curve. Control compounds for low, moderate and high intrinsic clearance, respectively, for both human and rat microsomes, were included.

Plasma stability, rat = format: in vitro ADME; conditions: 37 °C, up to 2 h, read-out: Plasma Stability Rat t1/2
Description: Dilutions of a 10 mM test compound DMSO stock solution were prepared so that the final DMSO concentration was 1% v/v and the final test compound concentration tested was 1 µM. Following the addition of the test compound to plasma, the samples were pre-incubated for 10 min prior to the start of the incubation by the addition of the test compound. The test compound was incubated (n = 2; 1 µM final concentration) at 37 °C with plasma for up to 2 h. Aliquots were sampled at several time points and mixed with acetonitrile (containing internal standard) to terminate the reaction and precipitate the proteins. All the samples were mixed, centrifuged and the supernatants analysed by UPLC-MSMS. Parent disappearance and half-life (t 1/2) values were determined from the slope of the parent depletion curve. Control compounds (imidapril, enalapril, tenofovir and/or propantheline), were respectively included.

AQ production in PA14 = test: Alkylquinolone (HHQ, PQS, HQNO) production by LC-MS/MS, PA14; format: cell-based, Pseudomonas aeruginosa; conditions: 3x IC50, 16 h, culture supernatant
Description: HQNO, can protect Staphylococcus aureus from vancomycin [31] and contributes to the environmental competitiveness of P. aeruginosa, through its activity as a potent inhibitor of the cytochrome bc1 complex. […] LC-MS/MS was used to quantify the major AQs HHQ, PQS and HQNO after incubation of the P. aeruginosa strains with the hit compounds, for 16 h. The assay was performed using both PAO1-L and PA14 strains which were treated with PqsR antagonists at concentrations three-fold higher than their IC50 values. The results obtained depended on the inhibitor and strain tested (Figure 5).
For each test sample, 100 µL of sterile filtered supernatant (the same preparation as for pyocyanin) was spiked with 10 µL of an internal standard solution (10 µM d4-PQS in MeOH), and diluted with water, to a total volume of 500 µL. Samples were then extracted three times with an 0.5 mL aliquot of ethyl acetate, vortex mixing the aqueous/organic mix for 2 min, then removing the organic phase once the layers had successfully partitioned. For each sample, the combined organic extracts were dried under vacuum and re-dissolved in 100 µL MeOH prior to analysis. For the LC-MS/MS analysis of supernatant extracts, the chromatography was achieved using a Shimadzu series 10AD VP LC system (Columbia, MD, USA). The LC column, maintained at 40 °C, was a Phenomenex Gemini C18 (3.0 µm, 100 × 3.0 mm) (Macclesfield, Cheshire, UK) with an appropriate guard column. Mobile phase A was 0.1% (v/v) formic acid in water containing 2 mM 2-picolinic acid, and mobile phase B 0.1% (v/v) formic acid in methanol. The flow rate throughout the chromatographic separation was 450 µL/min. After an injection of a 2 µL/sample, a binary gradient, beginning initially at 30% B, increased linearly to 99% B over 5 min. The composition remained at 99% B for 3 min, decreased to 30% B over 1 min, and stayed at this composition for 4 min, to allow for column equilibration. […] Where chromatographic peaks for HHQ, HQNO and PQS were detected, a peak area was determined, and analyte peak area/internal standard peak area calculated.

PA14 = test: Bacterial growth (optical density) in reporter assay, PA14; format: cell-based, Pseudomonas aeruginosa; conditions: compound vs DMSO control
Description: as §1
(§3) Figure 3 Whole bacterial cell-based P. aeruginosa compound screen for both PqsR and growth inhibition (a) Activity against PA14 (green) and PAO1-L (purple) PpqsA-lux reporter strains at 10 µM test compound; (b) and (c) Dose-response curves for active compounds against PA14 (b) and PAO1-L (c); (d) and (e) growth curves for PA14 (d) and PAO1-L (e) in the presence of compound or DMSO control.

[3] = system: PqsR (pqsA promoter, PAO1-L mCTX::PpqsA-lux); test: Whole cell biosensor reporter assay, PAO1-L mCTX::PpqsA-lux; format: cell-based, Pseudomonas aeruginosa; conditions: for IC50: Mean ± SD, n = 3; for activity at 10 µM: PAO1, read-out: PAO1-L Remaining Activity %; for PqsR inhibitory activity (in words), PAO1-L: screen at 10 µM / dose-response
Description: as §1, §2

PAO1-L = test: Bacterial growth (optical density) in reporter assay, PAO1-L; format: cell-based, Pseudomonas aeruginosa; conditions: compound vs DMSO control
Description: as §1, §3

[4] = Pseudomonas aeruginosa, PA14, read-out: IC50 PA14, PpqsA-lux reporter
[5] = read-out: IC50 PA14, PpqsA-lux reporter
[6] = Pseudomonas aeruginosa, PAO1, read-out: IC50 PAO1-L, PpqsA-lux reporter

| SMILES | IC50 [1, 4] | activity at 10 µM ([1]; Pseudomonas aeruginosa) | IC50 [1, 5] | PqsR inhibitory activity (in words), PA14 [1] | microsomal CLint at 1 µM [2] | half-life at 1 µM [2] | half-life at 1 µM (Plasma stability, rat) | Inhibition of AQ production (in words), PA14 (AQ production in PA14) | Effect on bacterial growth, PA14 (PA14) | IC50 [3, 6] | activity at 10 µM ([3]; Pseudomonas aeruginosa) | IC50 ([3]; read-out: IC50 PAO1-L, PpqsA-lux reporter) | PqsR inhibitory activity (in words), PAO1-L [3] | Effect on bacterial growth, PAO1-L (PAO1-L) |
| --- | --- | --- | --- | --- | --- | --- | --- | --- | --- | --- | --- | --- | --- | --- |
| CC(=O)N1N=C(c2ccccc2)CC1c1cccc(Nc2ccnc3cc(Cl)ccc23)c1 (stereo not drawn) [IIa] | 3700 nM | 19.7 ± 1.9% | 4000 ± 1620 nM | strong PqsR inhibitory activity | 87.8 µL/min/mg | 15.8 min | > 240 min | moderate effect | without interfering with bacterial growth | 1500 nM | 31.6 ± 6.6% | 1600 ± 290 nM | strong PqsR inhibitory activity | without interfering with bacterial growth |
| O=CN1N=C(c2ccccc2)CC1c1cccc(Nc2ccnc3cc(Cl)ccc23)c1 (stereo not drawn) [Ia] | 2200 nM | 18.7 ± 1.98% | 2300 ± 510 nM | strong PqsR inhibitory activity | 122 µL/min/mg | 11.5 min | > 240 min | strongly-inhibited AQ production | without interfering with bacterial growth | 12400 ± 1790 nM | 25.8 ± 1.17% |  | strong PqsR inhibitory activity; also recorded: modest activity | without interfering with bacterial growth |

— publication PMC6017655, “In Silico and in Vitro-Guided Identification of Inhibitors of Alkylquinolone-Dependent Quorum Sensing in Pseudomonas aeruginosa” (Molecules : A Journal of Synthetic Chemistry and Natural …, 2018)
